In PubChem BioAssay AID2060509 (Molecular Pharmacology Branch, DTP, NCI, 2025):

Tested on: 485176-168-R4-J1-PDC spheroids with HUVEC/MSC, viability
Assay: Anticancer human tumor 485176-168-R4-J1-PDC patient-derived pancreatic adenocarcinoma cell line growth inhibition [GQUAD]
Conditions: for IC50: curve of first compound; for viability, T/C: stronger effect = lower value
How it was run: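 Tumor cells were grown as complex spheroids with HUVEC endothelial cells and mesenchymal stem cells as stroma. G-quadruplex stabilizers were combined with targeted agents over half-log dilutions from near the clinical Cmax, or from 10 microM.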

[1] = second compound 0.0316 µM, first compound 0.0316 µM
[2] = second compound 0.0316 µM, first compound 0.1 µM
[3] = second compound 0.0316 µM, first compound 0.316 µM
[4] = second compound 0.0316 µM, first compound 1 µM
[5] = second compound 0.0316 µM, first compound 3.16 µM
[6] = second compound 0.0316 µM, first compound 10 µM
[7] = second compound 0.1 µM, first compound 0.0316 µM
[8] = second compound 0.1 µM, first compound 0.1 µM
[9] = second compound 0.1 µM, first compound 0.316 µM
[10] = second compound 0.1 µM, first compound 1 µM
[11] = second compound 0.1 µM, first compound 3.16 µM
[12] = second compound 0.1 µM, first compound 10 µM
[13] = second compound 0.316 µM, first compound 0.0316 µM
[14] = second compound 0.316 µM, first compound 0.1 µM
[15] = second compound 0.316 µM, first compound 0.316 µM
[16] = second compound 0.316 µM, first compound 1 µM
[17] = second compound 0.316 µM, first compound 3.16 µM
[18] = second compound 0.316 µM, first compound 10 µM
[19] = second compound 1 µM, first compound 0.0316 µM
[20] = second compound 1 µM, first compound 0.1 µM
[21] = second compound 1 µM, first compound 0.316 µM
[22] = second compound 1 µM, first compound 1 µM
[23] = second compound 1 µM, first compound 3.16 µM
[24] = second compound 1 µM, first compound 10 µM
[25] = second compound 3.16 µM, first compound 0.0316 µM
[26] = second compound 3.16 µM, first compound 0.1 µM
[27] = second compound 3.16 µM, first compound 0.316 µM
[28] = second compound 3.16 µM, first compound 1 µM
[29] = second compound 3.16 µM, first compound 3.16 µM
[30] = second compound 3.16 µM, first compound 10 µM
[31] = second compound 10 µM, first compound 0.0316 µM
[32] = second compound 10 µM, first compound 0.1 µM
[33] = second compound 10 µM, first compound 0.316 µM
[34] = second compound 10 µM, first compound 1 µM
[35] = second compound 10 µM, first compound 3.16 µM
[36] = second compound 10 µM, first compound 10 µM
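Further: spheroids exposed to compounds for seven days before readout.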
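Wherever viability, T/C is given: percent viability relative to DMSO vehicle control wells as 100%.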

Compound: C=CC(=O)N1CCN(c2nc(=O)n(-c3c(C)ccnc3C(C)C)c3nc(-c4c(O)cccc4F)c(F)cc23)C(C)C1 (stereo unspecified) + CN(C)c1ccc(Nc2c3ccc(NC(=O)CCN4CCCC4)cc3nc3cc(NC(=O)CCN4CCCC4)ccc23)cc1
- IC50 (second compound 0.0316 µM): > 10 µM
- IC50 (second compound 0.1 µM): > 10 µM
- IC50 (second compound 0.316 µM): > 10 µM
- IC50 (second compound 1 µM): > 10 µM
- IC50 (second compound 3.16 µM): > 10 µM
- IC50 (second compound 10 µM): > 10 µM
- viability, T/C [1]: 111%
- viability, T/C [2]: 90.2%
- viability, T/C [3]: 102%
- viability, T/C [4]: 98.1%
- viability, T/C [5]: 120%
- viability, T/C [6]: 112%
- viability, T/C [7]: 88.5%
- viability, T/C [8]: 98.3%
- viability, T/C [9]: 110%
- viability, T/C [10]: 99.5%
- viability, T/C [11]: 114%
- viability, T/C [12]: 96.6%
- viability, T/C [13]: 90.5%
- viability, T/C [14]: 95.7%
- viability, T/C [15]: 96.2%
- viability, T/C [16]: 101%
- viability, T/C [17]: 119%
- viability, T/C [18]: 120%
- viability, T/C [19]: 128%
- viability, T/C [20]: 110%
- viability, T/C [21]: 94.8%
- viability, T/C [22]: 108%
- viability, T/C [23]: 125%
- viability, T/C [24]: 98.6%
- viability, T/C [25]: 108%
- viability, T/C [26]: 95.6%
- viability, T/C [27]: 90.5%
- viability, T/C [28]: 107%
- viability, T/C [29]: 114%
- viability, T/C [30]: 108%
- viability, T/C [31]: 86.2%
- viability, T/C [32]: 104%
- viability, T/C [33]: 86.6%
- viability, T/C [34]: 91.1%
- viability, T/C [35]: 88.2%
- viability, T/C [36]: 73.1%

Compound: CC(=O)O[C@H]1C(=O)[C@@]2(C)[C@H]([C@H](OC(=O)c3ccccc3)[C@]3(O)C[C@H](OC(=O)[C@H](O)[C@@H](NC(=O)c4ccccc4)c4ccccc4)C(C)=C1C3(C)C)[C@]1(OC(C)=O)CO[C@@H]1C[C@@H]2O + CN(C)c1ccc(Nc2c3ccc(NC(=O)CCN4CCCC4)cc3nc3cc(NC(=O)CCN4CCCC4)ccc23)cc1
- IC50 (second compound 0.0316 µM): < 0.0316 µM
- IC50 (second compound 0.1 µM): < 0.0316 µM
- IC50 (second compound 0.316 µM): < 0.0316 µM
- IC50 (second compound 1 µM): < 0.0316 µM
- IC50 (second compound 3.16 µM): < 0.0316 µM
- IC50 (second compound 10 µM): < 0.0316 µM
- viability, T/C [1]: 34.3%
- viability, T/C [2]: 14.3%
- viability, T/C [3]: 14.3%
- viability, T/C [4]: 11.6%
- viability, T/C [5]: 11%
- viability, T/C [6]: 14.1%
- viability, T/C [7]: 31.9%
- viability, T/C [8]: 15%
- viability, T/C [9]: 14.1%
- viability, T/C [10]: 14.9%
- viability, T/C [11]: 12%
- viability, T/C [12]: 11.3%
- viability, T/C [13]: 33.3%
- viability, T/C [14]: 15.6%
- viability, T/C [15]: 12.9%
- viability, T/C [16]: 13.7%
- viability, T/C [17]: 11.5%
- viability, T/C [18]: 10.9%
- viability, T/C [19]: 31%
- viability, T/C [20]: 13.3%
- viability, T/C [21]: 12.2%
- viability, T/C [22]: 14%
- viability, T/C [23]: 11.5%
- viability, T/C [24]: 9.76%
- viability, T/C [25]: 36.9%
- viability, T/C [26]: 11.3%
- viability, T/C [27]: 16.1%
- viability, T/C [28]: 13.6%
- viability, T/C [29]: 12.5%
- viability, T/C [30]: 11.3%
- viability, T/C [31]: 28.3%
- viability, T/C [32]: 12.4%
- viability, T/C [33]: 13.1%
- viability, T/C [34]: 11.5%
- viability, T/C [35]: 10.6%
- viability, T/C [36]: 12%

Compound: CC[C@@]1(O)C(=O)OCc2c1cc1n(c2=O)Cc2cc3c(CN(C)C)c(O)ccc3nc2-1 + CN(C)c1ccc(Nc2c3ccc(NC(=O)CCN4CCCC4)cc3nc3cc(NC(=O)CCN4CCCC4)ccc23)cc1
- IC50 (second compound 0.0316 µM): 0.18 µM
- IC50 (second compound 0.1 µM): 0.185 µM
- IC50 (second compound 0.316 µM): 0.168 µM
- IC50 (second compound 1 µM): 0.191 µM
- IC50 (second compound 3.16 µM): 0.128 µM
- IC50 (second compound 10 µM): 0.232 µM
- viability, T/C (second compound 0.0316 µM, first compound 0.000999 µM): 97.9%
- viability, T/C (second compound 0.0316 µM, first compound 0.00316 µM): 88.1%
- viability, T/C (second compound 0.0316 µM, first compound 0.00999 µM): 83.8%
- viability, T/C [1]: 90.6%
- viability, T/C (second compound 0.0316 µM, first compound 0.0999 µM): 65%
- viability, T/C [3]: 35.6%
- viability, T/C (second compound 0.1 µM, first compound 0.000999 µM): 94.8%
- viability, T/C (second compound 0.1 µM, first compound 0.00316 µM): 106%
- viability, T/C (second compound 0.1 µM, first compound 0.00999 µM): 95.9%
- viability, T/C [7]: 81%
- viability, T/C (second compound 0.1 µM, first compound 0.0999 µM): 64.5%
- viability, T/C [9]: 38.4%
- viability, T/C (second compound 0.316 µM, first compound 0.000999 µM): 97.3%
- viability, T/C (second compound 0.316 µM, first compound 0.00316 µM): 117%
- viability, T/C (second compound 0.316 µM, first compound 0.00999 µM): 107%
- viability, T/C [13]: 99.1%
- viability, T/C (second compound 0.316 µM, first compound 0.0999 µM): 55.7%
- viability, T/C [15]: 43.1%
- viability, T/C (second compound 1 µM, first compound 0.000999 µM): 89.1%
- viability, T/C (second compound 1 µM, first compound 0.00316 µM): 97.7%
- viability, T/C (second compound 1 µM, first compound 0.00999 µM): 99.1%
- viability, T/C [19]: 81.1%
- viability, T/C (second compound 1 µM, first compound 0.0999 µM): 69.5%
- viability, T/C [21]: 35.8%
- viability, T/C (second compound 3.16 µM, first compound 0.000999 µM): 104%
- viability, T/C (second compound 3.16 µM, first compound 0.00316 µM): 99.7%
- viability, T/C (second compound 3.16 µM, first compound 0.00999 µM): 87.2%
- viability, T/C [25]: 76.6%
- viability, T/C (second compound 3.16 µM, first compound 0.0999 µM): 52.6%
- viability, T/C [27]: 35.5%
- viability, T/C (second compound 10 µM, first compound 0.000999 µM): 108%
- viability, T/C (second compound 10 µM, first compound 0.00316 µM): 98.6%
- viability, T/C (second compound 10 µM, first compound 0.00999 µM): 88.3%
- viability, T/C [31]: 94.6%
- viability, T/C (second compound 10 µM, first compound 0.0999 µM): 63.5%
- viability, T/C [33]: 44%
